In patent US20250186391A1, “ORAL COMPLEMENT FACTOR D INHIBITORS” (BioCryst Pharmaceuticals, Inc., priority 2019, published 2025):

target: Factor D (Homo sapiens (Human), UniProt P00746); test: Factor D esterolytic assay; type: biochemical; settings: Z-Lys-SBzl substrate, 100 mM HEPES, 500 mM NaCl, pH 7.5, 10% DMSO; tested a minimum of three times; read-out: Measured Ki (IC50) Value for Compounds: IC50
Protocol: The IC50 value of a compound (i.e., the concentration of the compound that inhibits 50% of the enzymatic activity) was calculated according to the procedure reported in U.S. Pat. No. 6,653,340 B1, e.g., column 74 (incorporated by reference).
Specifically, the compounds were dissolved in a stock solution of DMSO at 10.0 or 100 mM. A portion of this stock solution was added to assay buffer in a final volume of 50 μL. Controls included buffer alone and enzyme solutions to which DMSO was added. Substrate was added to the reaction wells immediately or after incubation at room temperature. The reaction rates were measured spectrophotometrically by the generation of product at 405 nm for 600 sec. Background absorbance at 690 nm was measured and subtracted from the absorbance at 405 nm for each well.
The reaction rate for enzyme alone was compared to the rate of enzyme in the presence of inhibitor and the percent inhibition was calculated as shown below: […]
An established esterolytic assay for the measurement of Factor D activity and inhibition of Factor D activity was used (Kam, C. M.; McRae, B. J.; Harper, J. W.; Niemann, M. A.; Volanakis, J. E.; Powers, J. C. Human complement proteins D, C2, and B Active site mapping with peptide thioester substrates. J Biol. Chem. 1987, 262, 3444-3451). For this assay Z-Lys-SBzl, 1.29 mM (Kim, S.; Narayana, S. V. L; Volanakis, J. E. Mutational analysis of the substrate binding site of human complement Factor D. Biochemistry. 1994, 33, 14393-14399.) was used as the substrate for Factor D ([…]). Hydrolysis of this compound by Factor D liberated a free sulfhydryl group which is then reacted with 5,5′-dithiobis(2nitrobenzoic acid) producing an intense yellow color (Habeeb, A. F. S. A. Reaction of protein sulfhydryl groups with Ellman's Reagent. Methods in Enzymol. 1976, 25, 457-464.). The assays were performed in 96 well microtiter plates and rates of hydrolysis were monitored at 405 nm on a Biotek Synergy H1 plate reader. Hydrolysis rates were reported as change in mOD/min. The assay was conducted in 100 mM HEPES, 500 mM NaCl, pH 7.5 containing 10% DMSO in a final volume of 50 μL per well.
An IC50, a compound concentration which inhibits 50% of the enzymatic activity, was calculated. Compounds in the examples were tested a minimum of three times.

Chain of Factor D (P00746 26-253): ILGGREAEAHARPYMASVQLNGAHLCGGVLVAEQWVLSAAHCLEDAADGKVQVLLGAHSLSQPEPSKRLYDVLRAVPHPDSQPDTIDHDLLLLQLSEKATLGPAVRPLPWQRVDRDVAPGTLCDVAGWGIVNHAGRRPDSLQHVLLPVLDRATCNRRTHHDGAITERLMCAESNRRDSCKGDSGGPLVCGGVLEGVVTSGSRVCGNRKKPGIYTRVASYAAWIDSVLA

IC50 [nM]	SMILES
< 1000	Cn1cncc1COc1cc(-c2cccc(CN)c2)cc2c(COc3ccccc3CC(=O)O)coc12 [Compound 199f, 2-(2-((5-(3-(aminomethyl)phenyl)-7-((1-methyl-1H-imidazol-5-yl)methoxy)benzofuran-3-yl)methoxy)phenyl)acetic acid]
< 1000	NCc1cccc(-c2cccc3cc(COc4ccccc4CC(=O)O)oc23)c1 [Compound 19e, 2-(2-((7-(3-(aminomethyl)phenyl)benzofuran-2-yl)methoxy)phenyl)acetic acid]
< 1000	NCc1cccc(-c2cc(-c3cc4ccccc4[nH]3)c3occ(COc4ccccc4CC(=O)O)c3c2)c1 [Compound 137c, 2-(2-((5-(3-(aminomethyl)phenyl)-7-(1H-indol-2-yl)benzofuran-3-yl)methoxy)phenyl)acetic acid]
< 1000	CNc1cc(-c2cccc(CN)c2)cc2c(COc3ccccc3CC(=O)O)coc12 [Compound 152d, 2-(2-((5-(3-(aminomethyl)phenyl)-7-(methylamino)benzofuran-3-yl)methoxy)phenyl)acetic acid]
< 1000	CCc1ccc(CC(=O)O)c(OCc2coc3ccc(-c4cccc(CN)c4)cc23)c1 [Compound 49b, 2-(2-((5-(3-(aminomethyl)phenyl)benzofuran-3-yl)methoxy)-4-ethylphenyl)acetic acid]
< 1000	NCc1cccc(-c2cc(-c3cccnc3)c3occ(COc4ccccc4CC(=O)O)c3c2)c1 [Compound 162c, 2-(2-((5-(3-(aminomethyl)phenyl)-7-(pyridin-3-yl)benzofuran-3-yl)methoxy)phenyl)acetic acid]
< 1000	CC(C)Nc1cc(-c2cccc(CN)c2)cc2c(COc3ccccc3CC(=O)O)coc12 [Compound 148d, 2-(2-((5-(3-(aminomethyl)phenyl)-7-(isopropylamino)benzofuran-3-yl)methoxy)phenyl)acetic acid]
< 1000	NCc1cccc(-c2cc(N3CCOCC3)c3occ(COc4ccccc4CC(=O)O)c3c2)c1 [Compound 154c, 2-(2-((5-(3-(aminomethyl)phenyl)-7-morpholinobenzofuran-3-yl)methoxy)phenyl)acetic acid]
< 1000	NCc1cccc(-c2cc(-c3cccc(CN)c3)c3occ(COc4ccccc4CC(=O)O)c3c2)c1 [Compound 189c, 2-(2-((5,7-bis(3-(aminomethyl)phenyl)benzofuran-3-yl)methoxy)phenyl)acetic acid]
< 1000	Cn1cc(-c2cc(-c3cccc(CN)c3)cc3c(COc4ccccc4CC(=O)O)c(C(=O)O)oc23)cn1 [Compound 60d, 5-(3-(aminomethyl)phenyl)-3-((2-(carboxymethyl)phenoxy)methyl)-7-(1-methyl-1H-pyrazol-4-yl)benzofuran-2-carboxylic acid]
< 1000	COc1ccc(CC(=O)O)c(OCc2coc3c(OC)cc(-c4cccc(CN)c4)cc23)c1 [Compound 251c, 2-(2-((5-(3-(aminomethyl)phenyl)-7-methoxybenzofuran-3-yl)methoxy)-4-methoxyphenyl)acetic acid]
< 1000	COc1ccc(CC(=O)O)c(OCc2coc3c(C)cc(-c4cccc(CN)c4)cc23)c1 [Compound 253c, 2-(2-((5-(3-(aminomethyl)phenyl)-7-methylbenzofuran-3-yl)methoxy)-4-methoxyphenyl)acetic acid]
> 10000	NCc1cccc(-c2cccc3c(COc4ccccc4CC(=O)O)coc23)c1 [Compound 36e, 2-(2-((7-(3-(aminomethyl)phenyl)benzofuran-3-yl)methoxy)phenyl)acetic acid]
< 1000	NCc1cccc(-c2cc(CN3CCNCC3)c3occ(COc4ccccc4CC(=O)O)c3c2)c1 [Compound 122b, 2-(2-((5-(3-(aminomethyl)phenyl)-7-(piperazin-1-ylmethyl)benzofuran-3-yl)methoxy)phenyl)acetic acid]
< 1000	NCc1cccc(-c2ccc3occ(COc4cc(CC5CC5)ccc4CC(=O)O)c3c2)c1 [Compound 153d, 2-(2-((5-(3-(aminomethyl)phenyl)benzofuran-3-yl)methoxy)-4-(cyclopropylmethyl)phenyl)acetic acid]
< 1000	CCOC(=O)Cc1ccccc1OCc1cc(-c2cccc(CN)c2)c2oc(COc3ccccc3CC(=O)O)cc2c1 [Compound 22e, 2-(2-((7-(3-(aminomethyl)phenyl)-5-((2-(2-ethoxy-2-oxoethyl)phenoxy)methyl)benzofuran-2-yl)methoxy)phenyl)acetic acid]
< 1000	Cc1nn(C)cc1-c1cc(-c2cccc(CN)c2)cc2c(COc3ccccc3CC(=O)O)coc12 [Compound 134c, 2-(2-((5-(3-(aminomethyl)phenyl)-7-(1,3-dimethyl-1H-pyrazol-4-yl)benzofuran-3-yl)methoxy)phenyl)acetic acid]

More lines, now with the values behind:

SMILES	IC50 [nM]
NCc1cccc(-c2ccc3c(c2)c(COc2ccccc2CC(=O)O)nn3C2CCCCC2)c1 [Compound 259c, 2-(2-((5-(3-(aminomethyl)phenyl)-1-cyclohexyl-1H-indazol-3-yl)methoxy)phenyl)acetic acid]	< 1000
NCc1cccc(-c2ccc3c(c2)c(COc2ccccc2CC(=O)O)nn3CC2CC2)c1 [Compound 258f, 2-(2-((5-(3-(aminomethyl)phenyl)-1-(cyclopropylmethyl)-1H-indazol-3-yl)methoxy)phenyl)acetic acid]	< 1000
CC(C)n1nc(COc2ccccc2CC(=O)O)c2cc(-c3ccnc(CN)c3)ccc21 [Compound 266b, 2-(2-((5-(2-(aminomethyl)pyridin-4-yl)-1-isopropyl-1H-indazol-3-yl)methoxy)phenyl)acetic acid]	< 1000
NCc1cccc(-c2ccc3occ(COc4c(F)cccc4CC(=O)O)c3c2)c1F [Compound 46b, 2-(2-((5-(3-(aminomethyl)-2-fluorophenyl)benzofuran-3-yl)methoxy)-3-fluorophenyl)acetic acid]	< 1000
NCc1cccc(-c2ccc3occ(COc4cc(C(N)=O)ccc4CC(=O)O)c3c2)c1 [Compound 63c, 2-(2-((5-(3-(aminomethyl)phenyl)benzofuran-3-yl)methoxy)-4-carbamoylphenyl)acetic acid]	< 1000
CC(C)n1nc(COc2ccccc2CCC(=O)O)c2cc(-c3cccc(CN)c3)ccc21 [Compound 308d, 3-(2-((5-(3-(aminomethyl)phenyl)-1-isopropyl-1H-indazol-3-yl)methoxy)phenyl)propanoic acid]	1000 to 10000
CC(C)c1ccc(CC(=O)O)c(OCc2coc3ccc(-c4cccc(CN)c4)cc23)c1 [Compound 190f, 2-(2-((5-(3-(aminomethyl)phenyl)benzofuran-3-yl)methoxy)-4-isopropylphenyl)acetic acid]	< 1000
NCc1cccc(-c2ccc3nnc(COc4ccccc4CC(=O)O)n3c2)c1 [Compound 212d, 2-(2-((6-(3-(aminomethyl)phenyl)-[1,2,4]triazolo[4,3-a]pyridin-3-yl)methoxy)phenyl)acetic acid]	< 1000
C[C@@H](N)c1cccc(-c2ccc3occ(COc4ccccc4CC(=O)O)c3c2)c1 [Compound 52c, (R)-2-(2-((5-(3-(1-aminoethyl)phenyl)benzofuran-3-yl)methoxy)phenyl)acetic acid]	< 1000
COc1ccc(CC(=O)O)c(OCc2c(C)oc3ccc(-c4cccc(CN)n4)cc23)c1 [Compound 245d, 2-(2-((5-(6-(aminomethyl)pyridin-2-yl)-2-methylbenzofuran-3-yl)methoxy)-4-methoxyphenyl)acetic acid]	< 1000
COc1ccc(CC(=O)O)c(OCc2c(C(O)C(F)(F)F)oc3ccc(-c4cccc(CN)c4)cc23)c1 (stereo not shown) [Compound 216c, 2-(2-((5-(3-(aminomethyl)phenyl)-2-(2,2,2-trifluoro-1-hydroxyethyl)benzofuran-3-yl)methoxy)-4-methoxyphenyl)acetic acid]	< 1000
NCc1cccc(-c2cccc3cc(COc4ccccc4CCC(=O)O)oc23)c1 [Compound 35c, 3-(2-((7-(3-(aminomethyl)phenyl)benzofuran-2-yl)methoxy)phenyl)propanoic acid]	> 10000
COc1ccc(CC(=O)O)c(OCc2coc3c(NC(C)C)cc(-c4cccc(CN)c4)cc23)c1 [Compound 278c, 2-(2-((5-(3-(aminomethyl)phenyl)-7-(isopropylamino)benzofuran-3-yl)methoxy)-4-methoxyphenyl)acetic acid]	< 1000
CC(C)n1nc(COc2ccccc2CC(=O)O)c2cc(-c3ccc(N)cc3)ccc21 [Compound 322c, 2-(2-((5-(4-aminophenyl)-1-isopropyl-1H-indazol-3-yl)methoxy)phenyl)acetic acid]	> 10000
